What was measured:
MBP–β1AR6P = MBP–β1AR6P (Meleagris gallopavo, UniProt P07700, C116L/C358A/D322K/DEL244-271/E130W/F327A/F338M/M44C/M90V/V103C); test: Radioligand saturation binding, receptor in nanodiscs; design: species or system turkey (Meleagris gallopavo); conditions: read-out: apparent Kd
MBP–β1AR6P + βarr1 = MBP–β1AR6P + βarr1 (Meleagris gallopavo, UniProt P07700, C116L/C358A/D322K/DEL244-271/E130W/F327A/F338M/M44C/M90V/V103C); test: Radioligand saturation binding, receptor in nanodiscs with βarr1; design: species or system turkey (Meleagris gallopavo); conditions: read-out: apparent Kd
MBP–β1AR6P + mini-Gs = MBP–β1AR6P + mini-Gs (Meleagris gallopavo, UniProt P07700, C116L/C358A/D322K/DEL244-271/E130W/F327A/F338M/M44C/M90V/V103C); test: Radioligand saturation binding, receptor in nanodiscs with mini-Gs; design: species or system turkey (Meleagris gallopavo); conditions: read-out: apparent Kd
β44–V2R = test: Arrestin recruitment bias from GloSensor cAMP; assay type: cell-based, turkey (Meleagris gallopavo); conditions: with reference to isoprenaline, equiactive comparison approach

## CCCc1ccccc1OCC(O)CNC(C)C (stereo not shown) [[^3H]DHA, tritiated dihydroalprenolol]
MBP–β1AR6P
  Kd: 6 nM
MBP–β1AR6P + βarr1
  Kd: 6 nM
MBP–β1AR6P + mini-Gs
  Kd: 1.5 nM

## COc1ccc(CC(C)NCC(O)c2ccc(O)c(NC=O)c2)cc1 (stereo not shown) [formoterol]
β44–V2R
  bias factor (arrestin recruitment bias): 2.3 ± 0.4
